This experiment has as its target Glutamate receptor ionotropic, NMDA 2B (Rattus norvegicus, UniProt P35439+Q00960). The experiment in a line: Inhibition of Specific Binding to the Rat NR1/NR2B Receptor. As to the method:
After thawing on the day of the assay, a 5 ml membrane aliquot was centrifuged at 48000 g for 30 min at 4° C. The pellet was resuspended in 5 ml of 5 mM Tris/1 mM EDTA buffer, pH 7.4, homogenized for 30 sec at 20000 rpm with an Ultraturrax and centrifuged at 48000 g for 30 min at 4° C. This was repeated twice. […] Nonspecific binding was estimated in the presence of […]. The samples were incubated for 60 min. at 4° C.The incubation was terminated by filtration of the membrane preparations using Filtermat B (Pharmacia, Uppsala Sweden) and a Micro Cell Harvester (Skatron, Lier, Norway). The Filtermat B had been presoaked with 1% polyethylene imine and carefully washed with 50 mM Tris/HCl-buffer pH 7.7 after the filtration to separate free and bound radioactivity. […] For pipetting of the incubation mixture the robot Biomek2000 (Fa. Beckman) was used.

Drawing on BindingDB's records for patent US10155727 (Janssen Pharmaceuticals, 2018), this text covers IC50 for 2 molecules.

SMILES strings stand for the structures.

Glutamate receptor ionotropic, NMDA 2B, sequence (Q00960 whole entry, one chain of several): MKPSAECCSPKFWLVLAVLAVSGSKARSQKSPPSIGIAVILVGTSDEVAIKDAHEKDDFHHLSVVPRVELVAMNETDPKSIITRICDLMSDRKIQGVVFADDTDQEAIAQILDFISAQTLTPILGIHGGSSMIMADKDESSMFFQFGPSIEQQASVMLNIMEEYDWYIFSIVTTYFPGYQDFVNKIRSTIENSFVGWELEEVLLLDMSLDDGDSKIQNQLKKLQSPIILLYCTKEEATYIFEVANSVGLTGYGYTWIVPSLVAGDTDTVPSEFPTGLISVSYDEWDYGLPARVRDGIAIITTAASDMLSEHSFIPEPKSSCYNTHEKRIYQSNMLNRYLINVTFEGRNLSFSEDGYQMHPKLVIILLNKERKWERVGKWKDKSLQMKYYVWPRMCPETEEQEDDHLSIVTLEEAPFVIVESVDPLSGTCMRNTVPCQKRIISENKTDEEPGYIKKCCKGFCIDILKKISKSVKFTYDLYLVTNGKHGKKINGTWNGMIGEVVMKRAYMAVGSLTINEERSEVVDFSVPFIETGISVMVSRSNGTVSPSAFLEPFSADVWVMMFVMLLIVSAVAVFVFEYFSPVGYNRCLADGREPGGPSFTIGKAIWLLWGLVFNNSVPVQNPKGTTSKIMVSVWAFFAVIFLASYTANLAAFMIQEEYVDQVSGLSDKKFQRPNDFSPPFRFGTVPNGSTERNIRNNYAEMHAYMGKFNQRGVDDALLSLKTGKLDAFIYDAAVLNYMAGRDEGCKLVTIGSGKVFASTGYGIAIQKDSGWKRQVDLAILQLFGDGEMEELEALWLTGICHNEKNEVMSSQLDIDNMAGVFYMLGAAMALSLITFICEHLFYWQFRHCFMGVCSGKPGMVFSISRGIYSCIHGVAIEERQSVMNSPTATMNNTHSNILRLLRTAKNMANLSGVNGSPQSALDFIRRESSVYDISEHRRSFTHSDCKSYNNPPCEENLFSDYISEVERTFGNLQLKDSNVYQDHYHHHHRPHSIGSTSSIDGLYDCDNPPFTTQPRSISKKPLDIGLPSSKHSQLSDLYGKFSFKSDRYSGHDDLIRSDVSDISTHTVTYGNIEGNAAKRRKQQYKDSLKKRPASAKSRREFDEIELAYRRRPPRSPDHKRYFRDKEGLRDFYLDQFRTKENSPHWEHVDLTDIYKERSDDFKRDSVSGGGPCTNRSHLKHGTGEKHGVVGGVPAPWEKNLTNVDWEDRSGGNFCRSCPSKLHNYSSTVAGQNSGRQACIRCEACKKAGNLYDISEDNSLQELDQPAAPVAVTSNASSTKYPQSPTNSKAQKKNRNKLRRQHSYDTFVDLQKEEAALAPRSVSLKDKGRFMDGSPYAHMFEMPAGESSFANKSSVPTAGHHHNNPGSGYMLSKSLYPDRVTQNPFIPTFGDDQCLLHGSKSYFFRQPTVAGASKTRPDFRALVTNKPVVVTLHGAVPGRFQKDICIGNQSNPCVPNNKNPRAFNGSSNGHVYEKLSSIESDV

For the molecule `Cc1cc(Cn2cc(-c3ccc(C(F)(F)F)cc3)cn2)n(C)n1` [US10155727, Example 51], the IC50 was determined as 9.21 µM.

Turning to `Cn1ccc(Cn2cc(-c3cccc(C(F)(F)F)c3)cn2)n1` [US10155727, Example 49], the IC50 came out at 2.25 µM.

As a reminder, the IC50 is the midpoint of a concentration-inhibition curve.
